# Laboratory results: ChEMBL document CHEMBL1667825, “Synthesis of cross-reactive carbohydrate determinants fragments as tools for in vitro allergy diagnosis” (Bioorg Med Chem, 2011)
# The source made the active and inactive calls. No cut-off for these calls is given here.
# How the values were obtained:
# Oryctolagus cuniculus [1] = species: Oryctolagus cuniculus; test: Binding affinity to rabbit anti-HRP immunoglobulin G antibody at 5 ug/ml using p-nitrophenyl-phosphate substrate after 15 mins by ELISA
# Homo sapiens = species: Homo sapiens; test: Binding affinity to human anti-bromelain immunoglobulin E in multiple pollen sensitised patient serum using after 30 mins by ELISA
# Oryctolagus cuniculus [2] = species: Oryctolagus cuniculus; test: Binding affinity to rabbit anti-bee venom immunoglobulin G antibody at 5 ug/ml using p-nitrophenyl-phosphate substrate after 15 mins by ELISA
Activity (Oryctolagus cuniculus [1]),Structure (SMILES),Activity (Homo sapiens),Activity (Oryctolagus cuniculus [2])
Active,O=C(CCCCCO[C@@H]1O[C@H](CO[C@H]2O[C@H](CO)[C@@H](O)[C@H](O)[C@@H]2O)[C@@H](O)[C@H](O)[C@@H]1O[C@@H]1OC[C@@H](O)[C@H](O)[C@H]1O)NCCCCCCNC(=O)CCCC[C@@H]1SC[C@@H]2NC(=O)N[C@@H]21,,
Active,CC(=O)N[C@H]1[C@H](O[C@H]2[C@H](O[C@@H]3O[C@@H](C)[C@@H](O)[C@@H](O)[C@@H]3O)[C@@H](NC(C)=O)[C@H](OCCCCCC(=O)NCCCCCCNC(=O)CCCC[C@H]3[C@H]4NC(=O)N[C@H]4CS3(=O)=O)O[C@@H]2CO)O[C@H](CO)[C@@H](O)[C@@H]1O,Active,
Active,O=C(CCCCCO[C@@H]1O[C@H](CO[C@H]2O[C@H](CO)[C@@H](O)[C@H](O)[C@@H]2O)[C@@H](O)[C@H](O[C@@H]2O[C@@H](CO)[C@H](O)[C@@H](O)[C@H]2O)[C@@H]1O[C@@H]1OC[C@@H](O)[C@H](O)[C@H]1O)NCCCCCCNC(=O)CCCC[C@@H]1SC[C@@H]2NC(=O)N[C@@H]21,Active,

Structure (SMILES),Activity (Oryctolagus cuniculus [1]),Activity (Homo sapiens),Activity (Oryctolagus cuniculus [2])
CC(=O)N[C@H]1[C@H](O[C@H]2[C@H](O[C@@H]3O[C@@H](C)[C@@H](O)[C@@H](O)[C@@H]3O)[C@@H](NC(C)=O)[C@H](OCCCCCC(=O)NCCCCCCNC(=O)CCCC[C@H]3[C@H]4NC(=O)N[C@H]4CS3(=O)=O)O[C@@H]2CO[C@H]2O[C@H](C)[C@H](O)[C@H](O)[C@H]2O)O[C@H](CO)[C@@H](O)[C@@H]1O,Active,Active,inactive
